Peptide text beside a SMILES is read from it. * marks the point of attachment. Cbz = O=C(OCc1ccccc1)*
Assays:
HEK 293 cells [1] = test: Phage-mediated luciferase gene transfer in HEK 293 cells; assay type: cell-based, Human; details: for effect on phage-mediated luciferase gene transfer: MOI 1×10^6, omeprazole 50 μM, brefeldin A 500 ng/ml, chloroquine 50 μM for 24 h
Description: (§1) Preparation of bacteriophage lambda lysogens and vector production. The λD1180(luc) lysogen (Dam15 del EcoRI-Sac1 clts857 nin5 Sam100) has been described (Eguchi et al., J. Biol. Chem. 276(28):26204-10, 2001). The λD1180(luc) phage contains a firefly luciferase reporter gene under the regulatory control of the human cytomegalovirus immediate-early promoter. λD1180(luc) phage particles were prepared from E. coli lysogens that were stably transformed with either a plasmid encoding wildtype gpD or plasmids encoding gpD fusion proteins of interest, as described (Zanghi et al., Nucleic Acids Res. 33(18):e160, 2005). λ(luc) particles were purified by CsCl density gradient centrifugation and titered on LE392 E. coli cells (Zanghi et al., Nucleic Acids Res. 33(18):e160,2005).
(§2) Cells lines and phage transduction. Human embryonic kidney (HEK) 293 cells and COS simian kidney cells were obtained from American Type Culture Collection (ATCC), P.O. Box 1549, Manassas, Va. 20108. Cells were cultured in Dulbecco's Modified Eagle's Medium (DMEM) containing 10% fetal bovine serum, plus 2 mM L-glutamine and 100 U/ml penicillin, 100 μg/ml streptomycin. Twenty-four to forty-eight (24-48) hours following addition of phage to cells, cultures were washed with phosphate buffered saline (PBS) and lysed in passive lysis buffer (Promega Corporation, Madison, Wis.). Protein content in the lysates was quantitated by Bradford assay, and equal amounts of lysate (normalized in terms of protein content) were used in luciferase assays. Luciferase assay data are reported in relative light units.
(§3) To analyze the function of the proteasome in phage-mediated gene transfer, HEK 293A cells and COS-7 cells were incubated with luciferase encoding phage particles, in the presence or absence of three different pharmacologic inhibitors of proteasome activity (lactacystin, bortezomib and MG132). Lactacystin is an irreversible inhibitor of the 20S-proteasome, while bortezomib and MG132 are reversible inhibitors of the 26S-proteasome complex. […] The latter phage were generated by producing genetically gpD-deficient lambda phage particles in E. coli host cells that expressed a recombinant derivative of gpD, fused to a truncated PEST-like motif derived from seeligeriolysin O, a cholesterol-dependent cytolysin of Listeria seeligeri.

COS cells = test: Phage-mediated luciferase gene transfer in COS cells; assay type: cell-based, simian; details: luciferase at 48 h; for effect on phage-mediated luciferase gene transfer: MOI 1×10^6, omeprazole 50 μM, brefeldin A 500 ng/ml, chloroquine 70 μM for 24 h
Description: as §1, §2, §3

HEK 293 cells [2] = test: Measurement of endosomal pH by flow cytometry of fluorescein/tetramethylrhodamine dextran; assay type: cell-based, Human; details: 500 nM bafilomycin A1
Description: Measurement of endosomal pH. 5×10^5 HEK293 cells were preincubated in DMEM medium with 10% FBS (DMEM-10) overnight, after which the medium was replaced by DMEM-10 containing 2 mg/ml 70kD fluorescein and tetramethylrhodamine dextran (Invitrogen, Carlsbad, Calif.) plus either 100 nM or 500 nM bafilomycin A1 (BAF) or 2 mg/mL of nigericin (positive control) or no drug (negative control). One and a half (1.5) hours later, cells were washed in warm PBS and fresh media was added (with or without BAF or nigericin, as appropriate). Two (2) hours thereafter, cells were again washed with warm PBS, detached by trypsinization, washed with fresh media (with or without BAF or nigericin, as appropriate), and pelleted by centrifugation (5 minutes, 1000 g at 4° C.). Fluorescein
(F) and tetramethylrhodamine (T) fluorescence were quantitated by flow cytometric analysis using a FACS Calibur (Becton Dickinson). A standard curve was generated by suspending aliquots of cells (in the presence of 2 mg/ml of nigericin) in PBS at pH 4, 4.4, 5, 5.4, 6 and 6.4. The ratio of T/F fluorescence was then plotted against pH, to generate a standard curve; data from the bafilomycin-treated and non-treated cells were then extrapolated to this curve, in order to calculate endosomal pH.

HEK 293 cells [3] = test: Cytotoxicity / tolerability of proteasome inhibitors in HEK 293 cells; assay type: cell-based, Human
HEK 293 cells [4] = test: Quantitative analysis of intranuclear lambda phage genomic DNA (qPCR); assay type: cell-based, Human; details: Tpell phage, MOI 1×10^6, bortezomib 10 nM for 16 h, harvest at 24 h, p<0.01 vs untreated
Description: Quantitative analysis of intranuclear lambda phage genomic DNA. HEK 293 cells were incubated with phage lambda at a MOI of 10^6 in the presence or absence of 10 nM bortezomib. Sixteen (16) hours later, media was replaced with bortezomib-free DMEM (10% FBS); twenty-four (24) hours thereafter, cells were washed with cold PBS and non-internalized phage particles were then removed by performing 3 cold acid washes (0.2M CH3COOH, 0.5M NaCl, pH2.5), as described (Lankes et al., J. Appl. Microbiol 102(5):1337-49, 2007). […] Phage genomic DNA in the nuclear lysate was quantitated by DNA qPCR analysis on a BioRad iCycler using a TaqMan® (Roche Molecular Systems, Inc., Pleasanton, Calif.) primer/probe set specific for the lambda phage integrase gene (Probe: FAM-5′-[sequence]-3′-TAMRA (SEQ ID NO:2), Forward-5′-[sequence]-3′ (SEQ ID NO:3), Reverse-5′-[sequence]-3′ (SEQ ID NO:4)). Cellular chromosomal DNA in the nuclear lysate was also quantitated by DNA qPCR analysis using a TaqMan® (Roche Molecular Systems, Inc., Pleasanton, Calif.) primer/probe set specific for the 18S ribosomal RNA gene (Probe: FAM-5′-[sequence]-3′-TAMRA (SEQ ID NO:5), Forward-5′-[sequence]-3′ (SEQ ID NO:6), Reverse-5′-[sequence]-3′ (SEQ ID NO:7)). […]

HEK 293 cells [5] = test: Plasmid (pCMV:luc) luciferase expression in transiently transfected HEK 293 cells; assay type: cell-based, Human; details: pCMV:luc transfected HEK 293; bortezomib 10 nM for 16 h; luciferase at 48 h
Description: Transient transfection of cells with plasmid DNA. 1×10^4 HEK 293 cells were seeded into 96-well plates and incubated overnight. Cells were then transfected with 50 ng of a mammalian expression plasmid encoding the luciferase reporter gene (pgWiz-CMV luciferase) using lipofectamine-2000 reagent in the presence or absence of lOnM bortezomib. Four (4) hours thereafter, media were removed and fresh media were added (with or without bortezomib). Cells were incubated for an additional 12 hours, and media were again replaced (this time without any exogenous drug). Forty-eight (48) hours after transfection of the cells, they were washed with PBS, incubated in 1× passive lysis buffer (Promega Corporation, Madison, Wis.) and lyzed using two freeze-thaw cycles. Protein content within the lysates was then quantitated using Bradford assay and equal amounts of lysate (normalized in terms of protein content) were used in luciferase assays. Luciferase assay data are reported in relative light units.
Therefore, a control experiment was performed to determine whether proteasome inhibition exerted an effect on luciferase expression from a non-phage based gene transfer agent containing the same luciferase expression cassette present in λD1180(luc). […]

COS-7 cells = test: Adenovirus vector (AdLucGFP) mediated luciferase gene transfer in COS-7 cells; assay type: cell-based; details: AdLucGFP MOI 10, latrunculin A 120 nM added 30 min before transduction
Description: FIG. 13 is a graph showing, in cells treated with paclitaxel, nocodazole, or latrunculin A, adenoviral-mediated luciferase gene transfer. Latrunculin A ([…]), paclitaxel (20 μg/ml), or nocodazole (5 μM) was added to cells 30 minutes prior to transduction of COS-7 cells with a luciferase-expressing adenovirus vector (AdLucGFP) at a multiplicity of infection (MOI) of 10. Media were changed 24-hours post-transfection, and cells were lysed in Passive Lysis Buffer 24 hours later. Protein quantities were standardized and luciferase activity was measured in the cell lysates. The mean control level is shown as Ad only.
Latrunculin A (120 nM), paclitaxel (Taxol® (Bristol Meyers Squibb, Princeton, N.J.), 20 μg/ml), or nocodazole (5 μM) was added to cells 30 minutes prior to transduction of COS-7 cells with a luciferase-expressing adenovirus vector (AdLucGFP) at a multiplicity of infection (MOI) of 10. Media were changed 24-hours post-transfection, and cells were lysed in Passive Lysis Buffer 24 hours later. Protein quantities were standardized and luciferase activity was measured in the cell lysates.

[6] = test system: COS cells stably transfected with Fc receptor (CD64) and its associated gamma chain; test: Plasmid/Lipofectamine-mediated luciferase gene transfer in CD64-expressing COS cells; assay type: cell-based; details: 30 min pretreatment, luciferase at 48 h; for increase in plasmid gene transfer efficiency: nocodazole 5 μM or paclitaxel 20 μg/ml
Description: FIG. 12 is a graph showing plasmid mediated luciferase gene transfer in cells treated with a microtubule inhibitor. A DNA plasmid encoding a luciferase reporter gene was mixed with Lipofectamine. This was then added to COS cells that had been stably transfected with expression plasmids encoding a cellular Fc receptor (CD64) and its associated gamma chain, in the presence or absence (DNA only and DNA+DMSO) of latrunculin A (120 nM), paclitaxel (20 μg/ml), or nocodazole (5 μM). Cells were harvested 48 hours later and lysed, and luciferase activity measured.
A DNA plasmid encoding a luciferase reporter gene was mixed with Lipofectamine™ (Invitrogen, Carlsbad, Calif.). This was then added to COS cells that had been stably transfected expression plasmids encoding a cellular Fc receptor
(CD64) and its associated gamma chain. DNA was added to cells that had been pretreated for 30 minutes in the presence or absence of the microtubule inhibitors, nocodazole (5 μM) or paclitaxel (20 μg/ml), or the actin polymerization inhibitor, latrunculin A (120 nM). Cells were harvested 48 hours after transfection and lysed, and luciferase activity was measured.

[7] = Tpell phage, luciferase at 48 h

In the case of `CC(C)C[C@@H](C=O)NC(=O)[C@H](CC(C)C)NC(=O)[C@H](CC(C)C)NC(=O)OCc1ccccc1` [MG132] (Cbz-Leu-Leu-Leu-aldehyde), the “enhancement of phage-mediated luciferase expression” value (HEK 293 cells [1]; WT and Tpell phage, MOI 1×10^6, MG132 1 μM for 16 h, luciferase at 48 h, vs untreated cells) is reported as 5-10 fold and the “effect on phage-mediated luciferase gene expression” value (COS cells; WT and Tpell phage, MOI 1×10^6, lactacystin 3 μM, bortezomib 10 nM, MG132 1 μM for 16 h) is reported as “strong trend”.

`CO/C1=C\C(C)=C\[C@@H](C)[C@@H](O)[C@@H](C)C/C(C)=C/C=C/[C@H](OC)[C@@H]([C@@H](C)[C@@H](O)[C@H](C)[C@@]2(O)C[C@@H](O)[C@H](C)[C@@H](C(C)C)O2)OC1=O` [bafilomycin A1] was tested, and the “effect on phage-mediated gene transfer” value (HEK 293 cells [1]; Tpell phage, MOI 1×10^6, bafilomycin A for 24 h, luciferase at 48 h) was “no effect”, the “effect on endosomal pH” value (HEK 293 cells [2]) was “sufficient to raise endosomal pH” and the “effect on phage-mediated gene transfer” value (COS cells; Tpell phage, MOI 1×10^6, bafilomycin A for 24 h) was “no effect”.

For `CC(C)C[C@H](NC(=O)[C@H](Cc1ccccc1)NC(=O)c1cnccn1)B(O)O` [bortezomib], the “cytotoxicity relative to the other proteasome inhibitors tested” value (HEK 293 cells [3]) was “least cytotoxic”, the “nuclear accumulation of phage DNA (copies of lambda phage genomic DNA per cell)” value (HEK 293 cells [4]) was “statistically significant increase” and the “effect of extended exposure on phage-mediated gene transfer” value (HEK 293 cells [1]; Tpell phage, MOI 1×10^6, bortezomib 10 nM for 24 h, luciferase at 48 h) was “robust, statistically significant, enhancement”. The “effect on phage-mediated luciferase gene expression, agents alone and combined” value (HEK 293 cells [1]; Tpell phage, MOI 1×10^6, drugs for 24 h, luciferase at 48 h (FIG. 9)) was “modest increase” and the “effect on plasmid-mediated luciferase expression” value (HEK 293 cells [5]) was “no effect”.

For `C[C@H]1CCC/C=C/[C@@H]2C[C@H](O)C[C@H]2[C@H](O)/C=C/C(=O)O1` [brefeldin A], the “effect on phage-mediated luciferase gene transfer” value (HEK 293 cells [1]; [7]) was “no effect” and the “effect on phage-mediated luciferase gene transfer” value (COS cells; Tpell phage) was “no effect”.

`CCN(CC)CCCC(C)Nc1ccnc2cc(Cl)ccc12` (stereo not shown) [chloroquine] was tested, and the “effect on phage-mediated luciferase gene transfer” value (COS cells; Tpell phage) was “statistically significant enhancement”.

In the case of `C/C1=C/C(=O)O[C@@H]2C[C@@H](CC[C@H](C)/C=C\C=C\CC1)O[C@@](O)([C@@H]1CSC(=O)N1)C2` [latrunculin A], the “effect on adenoviral gene transfer efficiency” value (COS-7 cells) is reported as “no effect” and the “effect on efficiency of plasmid DNA expression” value ([6]; latrunculin A 120 nM) is reported as “no effect”.

In the case of `COC(=O)Nc1nc2ccc(C(=O)c3cccs3)cc2[nH]1` [nocodazole], the “increase in plasmid gene transfer efficiency” value [6] is reported as “approx 50 fold”.

With `COc1ccc2[nH]c([S+]([O-])Cc3ncc(C)c(OC)c3C)nc2c1` (stereo not shown) [omeprazole] the “effect on phage-mediated luciferase gene transfer” value (HEK 293 cells [1]; [7]) was “no effect” and the “effect on phage-mediated luciferase gene transfer” value (COS cells; Tpell phage) was “no effect”.

In the case of `CC(=O)O[C@H]1C(=O)[C@@]2(C)[C@H]([C@H](OC(=O)c3ccccc3)[C@]3(O)C[C@H](OC(=O)[C@H](O)[C@@H](NC(=O)c4ccccc4)c4ccccc4)C(C)=C1C3(C)C)[C@]1(OC(C)=O)CO[C@@H]1C[C@@H]2O` [paclitaxel], the “increase in plasmid gene transfer efficiency” value [6] is reported as “approx 50 fold”.
